Laboratory results published in PubChem BioAssay (NCI).
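Step 1: Grow cells in 96-well plates. Step 2: Expose to compound for 48 hours at 5 concentrations. Step 3: Interpolate endpoints linearly; if unreached, use highest concentration. The concentration for full growth arrest is given as TGI.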

What was measured:
Test in all cases: NCI-60 cell line screen, 48 h
HT29 colon = system: HT29 colon
LOX IMVI melanoma = system: LOX IMVI melanoma
MDA-MB-231 breast = system: MDA-MB-231 breast
MOLT-4 leukemia = system: MOLT-4 leukemia
NCI-H226 lung = system: NCI-H226 lung
NCI-H23 lung = system: NCI-H23 lung
OVCAR-5 ovarian = system: OVCAR-5 ovarian
SK-MEL-2 melanoma = system: SK-MEL-2 melanoma
SK-MEL-28 melanoma = system: SK-MEL-28 melanoma
SW-620 colon = system: SW-620 colon

Row | SMILES | TGI (HT29 colon) | TGI (LOX IMVI melanoma) | TGI (MDA-MB-231 breast) | TGI (MOLT-4 leukemia) | TGI (NCI-H226 lung) | TGI (NCI-H23 lung) | TGI (OVCAR-5 ovarian) | TGI (SK-MEL-2 melanoma) | TGI (SK-MEL-28 melanoma) | TGI (SW-620 colon)
1 | Cc1c2cc[n+](C)c(C)c2cc2c1[nH]c1ccccc12 | 83.8 µM | > 92.2 µM | > 36.3 µM | 75.2 µM | 10.8 µM | 16.3 µM | 82.6 µM | 30.5 µM | 26.4 µM | > 95.1 µM
2 | CC1(C)OC[C@@H](O)[C@H](C#N)CO1 | > 100 µM | > 100 µM | > 100 µM | > 100 µM | > 100 µM | > 100 µM | > 100 µM | > 100 µM | > 100 µM | > 100 µM
3 | CCCCCCCCCCCC[S+](C)C | 18.3 µM | 15.9 µM | 10.1 µM | 28.2 µM | 15.4 µM | 19.7 µM | 22.5 µM | 17.6 µM | 25.3 µM | 30.2 µM
